From the Deep4Chem optical property database come the findings set out here.

This data set can be described thus: solvent given as SMILES.

Each structure is given as a SMILES string.

Molecule `CCCCC1(c2ccccc2)Nc2c(-c3ccc(N(C)C)cc3)ccc(-c3ccc(N(C)C)cc3)c2N=C1c1ccccc1` (stereo not drawn) gave an absorption maximum (in ClC(Cl)Cl) of 371 nm.

Consider `CCn1c2ccccc2c2cc(-c3cc(-c4ccc5c(c4)c4ccccc4n5CC)nc(-c4ccccc4)n3)ccc21`, for which the absorption maximum by setting is: (in C1CCOC1) 364 nm; (in CCOC(C)=O) 360 nm; (in CN(C)C=O) 367 nm; (in Cc1ccccc1) 363 nm; (in ClCCl) 363 nm.

As to `Cc1cc2c3ccccc3[nH]c2c2[nH]c3ccccc3c12`, the absorption maximum (in ClCCl) came out at 323 nm.

For the setting “in ClC(Cl)Cl”, `CCCCc1cc(-c2cccc(COC)c2)oc1-c1cccc(-c2cc(CCCC)c(-c3cccc(-c4cc(CCCC)c(-c5cccc(-c6oc(-c7cccc(-c8oc(-c9cccc(-c%10oc(-c%11cccc(COC)c%11)cc%10CCCC)c9)cc8CCCC)c7)cc6CCCC)c5)o4)c3)o2)c1` displayed an absorption maximum of 337 nm.

Under “in CC#N”, `CCCn1c2cccc3c2[c+]2c4c1cccc4n(CCC)c1cccc(c12)n3CCC` displayed an absorption maximum of 521 nm.

For `Cc1ccc2sc3cc(CCC(=O)O)ccc3c(=O)c2c1`, the absorption maximum by setting is: (in CC#N) 401 nm; (in CO) 402 nm.

In the case of `COc1ccc2c(c1)CCc1c(-c3ccccc3)c3n(c1-2)[B-](F)(F)[N+]1=C2C(=C(c4ccccc4)C1=N3)CCc1ccccc12`, under “in ClC(Cl)Cl”, the absorption maximum was 723 nm.

Take `CCOC(=O)c1c2c3c(ccc(Br)c3c3cc4c(cc13)[Si](C)(C)O[Si]4(C)C)N(C)C2=O`: under “in CC#N”, the absorption maximum was determined as 382 nm.

Molecule `Cc1cc2nc3c(=O)n(C)c(=O)n(C)c3nc2cc1C` yielded an absorption maximum (in CC#N) of 375 nm.

`c1ccc(/C(=C(\c2ccccc2)c2ccccc2-c2ccc(-c3ccccc3)cc2)c2ccccc2-c2ccc(-c3ccccc3)cc2)cc1` returned an absorption maximum (in C1CCOC1) of 280 nm.

The molecule `CC[n+]1c(-c2ccccc2)c2cc(NC(N)=O)ccc2c2ccc(N)cc21` displayed an absorption maximum (in O) of 463 nm.

`CCCN1/C(=C/C=C/C=C/C2=[N+](CCC)c3ccccc3C2(C)C)C(C)(C)c2ccccc21` had an absorption maximum (in CO) of 637 nm, an absorption maximum (in CS(C)=O) of 645 nm and an absorption maximum (in O) of 633 nm.

`N#Cc1ccc(N/N=C/c2cc(Cl)ccc2O)cc1` came in with an absorption maximum (in CO) of 354 nm.

Consider `CCN(CC)c1ccc2cc(-c3cn4cc5ccccc5cc4n3)c(=O)oc2c1`, for which the absorption maximum (in ClC(Cl)Cl) came to 434 nm.

Take `CCOC(=O)c1c(-c2cc3ccccc3oc2=O)nn(-c2ccccc2)c1C(=O)OCC`: the absorption maximum (in ClCCl) is given as 323 nm.

On to `O=c1c2cc(F)c(O)cc2n(Cc2ccccc2)c2cc(O)c(F)cc12`, for which the absorption maximum (in CCO) came to 381 nm.

As to `CCCN(CCC)CCC`, the absorption maximum (in CCCCCC) was found to be 199 nm.

As to `Cc1nnc(-c2cc(-n3c4ccccc4c4ccccc43)c(-n3c4ccccc4c4ccccc43)cc2-c2nnc(C)o2)o1`, where the note is “in ClCCl”, the absorption maximum is recorded as 353 nm.

Under “in ClC(Cl)Cl”, `CCCCN1C(=O)c2ccc3c4c(Br)cc5c6c(ccc(c7c(Br)cc(c2c37)C1=O)c64)C(=O)N(CCCC)C5=O` came in with an absorption maximum of 524 nm.

Consider `N#Cc1ccc(N)c2nonc12`, for which the absorption maximum (in C1COCCO1) is 418 nm; the absorption maximum (in CC#N) was found to be 421 nm; the absorption maximum (in CCCCCC) is listed as 397 nm; the absorption maximum (in CCO) was determined as 430 nm; the absorption maximum (in Cc1ccccc1) is on record as 409 nm; the absorption maximum (in ClCCl) came out at 407 nm. This molecule yielded an absorption maximum (in O) of 430 nm.

Turning to `COc1ccc2nc(N)sc2c1`, the absorption maximum is, setting by setting: (in CC#N) 305 nm; (in ClCCl) 305 nm.

As for `Cc1cc(O)c(C(=O)/C=C/c2ccc(Cl)cc2)c(=O)o1`, the absorption maximum reads like this: (in CC#N) 357 nm; (in ClCCl) 360 nm.

As for `O=P1(c2ccccc2)c2ccccc2-n2cccc21` (stereo not drawn), the absorption maximum (in ClCCl) is 290 nm.

`COc1ccc(-c2cc(-c3ccccc3)c3n2[B-](F)(F)[N+]2=C4C=NC=CN4[B-](F)(F)[N+]2=C3)cc1`: where the note is “in ClCCl”, the absorption maximum was 534 nm.

Take `CN(C)c1ccc(C2=Nc3sc4ccccc4[n+]3[B-](F)(F)O2)cc1`: the absorption maximum by setting is: (in C1CCOC1) 424 nm; (in CC#N) 421 nm; (in CC(C)=O) 425 nm; (in Cc1ccccc1) 421 nm; (in ClCCl) 425 nm.

For the molecule `CN(C)c1ccc(/C=C/c2cccnn2)cc1`, the absorption maximum was 369 nm (in C1CCOC1), 369 nm (in CC#N), 380 nm (in CS(C)=O) and 365 nm (in ClCCl).

In the case of `CN(C)c1ccc(C2=Nc3sc4cc(Cl)ccc4[n+]3[B-](F)(F)O2)cc1`, the absorption maximum reads like this: (in C1CCOC1) 430 nm; (in CC#N) 426 nm; (in CC(C)=O) 430 nm; (in Cc1ccccc1) 427 nm; (in ClCCl) 430 nm.

`CCCCCCn1c2cc(C=C(C#N)C#N)sc2c2sc3c(sc4c5sc(C=C(C#N)C#N)cc5n(CCCCCC)c43)c21` gave an absorption maximum (in ClCCl) of 588 nm.

For `CCCCCCOc1ccc(C#Cc2ccc(C#CC#Cc3ccc(C#Cc4ccc(OCCCCCC)c(OCCCCCC)c4)c4nsnc34)c3nsnc23)cc1OCCCCCC`, the absorption maximum is 468 nm (in CN(C)C=O); 472 nm (in COc1ccccc1); 470 nm (in Cc1ccccc1); 472 nm (in ClC(Cl)Cl); 471 nm (in ClCCCl); 469 nm (in ClCCl).

`CC(C)[Si](C#Cc1c2cc3ccccc3cc2c(C#C[Si](C(C)C)(C(C)C)C(C)C)c2cc3ccccc3cc12)(C(C)C)C(C)C` had an absorption maximum (in ClCCl) of 643 nm.

`O=c1c2ccccc2nc2n1[B-](F)(F)[n+]1ccccc1-2`: the absorption maximum by setting is: (in CC#N) 334 nm; (in ClCCl) 353 nm.

Consider `Cc1cc(C)c(B(c2cc(-c3ccc(C(C)(C)C)cc3)sc2-c2sc(-c3ccc(C(C)(C)C)cc3)cc2P(=O)(c2ccccc2)c2ccccc2)c2c(C)cc(C)cc2C)c(C)c1`, for which the absorption maximum (in CO) was 396 nm.

`O=C(O)C1=C/C(=C/C=[NH+]/c2ccc3c(C(F)(F)F)cc(=O)oc3c2)CC(C(=O)O)N1` (stereo not drawn) displayed an absorption maximum (in O) of 519 nm.

In the case of `c1ccc(-c2nc(-c3ccc(N4CCCC4)cc3)cc(-c3ccc4ccccc4c3)n2)cc1`, the absorption maximum (in ClC(Cl)Cl) amounted to 430 nm.

Consider `F[B-]1(F)n2c(cc3ccc4ccccc4c32)C(c2ccc(I)cc2)=C2C=C3CCc4ccccc4C3=[N+]21`, for which the absorption maximum (in ClC(Cl)Cl) came out at 634 nm.

For the molecule `O=P1(c2ccccc2)C(c2cc(C(F)(F)F)cc(C(F)(F)F)c2)=Cc2c3ccc4cccc5ccc(c6cc(-c7ccc(N(c8ccccc8)c8ccccc8)cc7)n1c26)c3c45` (stereo not drawn), the absorption maximum stood at 434 nm (in C1CCCCC1); 437 nm (in C1CCOC1); 436 nm (in C1COCCO1); 434 nm (in CC#N); 435 nm (in CC(C)=O); 444 nm (in CO). The absorption maximum is, setting by setting: (in Cc1ccccc1) 441 nm; (in ClC(Cl)Cl) 441 nm; (in ClCCl) 437 nm.

Consider `O=C1c2cccc3cc(C#CC#Cc4cc5c6c(cccc6c4)C(=O)N(c4ccccc4)C5=O)cc(c23)C(=O)N1c1ccccc1`, for which, under “in ClCCl”, the absorption maximum is on record as 326 nm.

Where the note is “in ClC(Cl)Cl”, `CCCCC1(c2ccccc2)Nc2ccccc2N=C1c1ccccc1` (stereo not drawn) came in with an absorption maximum of 386 nm.

Where the note is “in ClCCl”, `COc1ccc2cc(C#CC3=C4CCc5ccccc5C4=[O+][B-](F)(F)O3)ccc2c1` came in with an absorption maximum of 457 nm.

On to `CCN(CC)c1ccc(-c2nc3c(c4c2-c2ccc(C#N)cc2CC4)-c2ccc(C#N)cc2CC3)cc1`, for which the absorption maximum is, setting by setting: (in C1CCOC1) 364 nm; (in CC#N) 360 nm; (in CCCCCC) 369 nm; (in CCOC(C)=O) 358 nm; (in CO) 360 nm; (in CS(C)=O) 375 nm. In addition, the absorption maximum (in Cc1ccccc1) is on record as 368 nm and the absorption maximum (in ClCCl) came out at 363 nm.

As for `Cc1c(COC(=O)c2ccccc2Br)n2c(OCC(=O)c3ccccc3Br)c(C)c(=O)n2c1=O`, the absorption maximum (in CCO) was 382 nm.

`CCCCCCCCCCCCc1sc(CCCCCC)c2c3cc(CCCCCC)sc3c3sc(CCCCCC)cc3c12` displayed an absorption maximum (in ClC(Cl)Cl) of 373 nm.

As to `Cc1ccc(/C=C/c2nc(-c3cccc([N+](=O)[O-])c3)[nH]c2/C=C/c2ccc(C)cc2)cc1`, the absorption maximum (in ClCCl) amounted to 370 nm.

In turn, `Cc1ccc(C2=Nc3cccc4[n+]3[B-](c3ccccc3)(N2)NC(c2ccc(C)cc2)=N4)cc1` displayed an absorption maximum (in ClCCl) of 435 nm.

With `Oc1ccc2ccccc2c1C1Nc2cccc3cccc(c23)N1`, the absorption maximum is listed as 334 nm (in CC#N), 333 nm (in CO), 350 nm (in CS(C)=O) and 337 nm (in Cc1ccccc1).

In turn, `c1csc(-c2ccc(-c3cccs3)s2)c1` had an absorption maximum (in CC#N) of 351 nm and an absorption maximum (in ClCCl) of 355 nm.

Consider `N#Cc1ccc(-c2cn3cc(C#N)c[n+]3[n-]2)cc1`, for which the absorption maximum (in ClCCl) is 360 nm.

As to `CN1C(=CC2=C([O-])C(=Cc3oc4ccccc4[n+]3C)C2=O)C(C)(C)c2ccccc21`, for the setting “in ClC(Cl)Cl”, the absorption maximum was found to be 608 nm.

On to `CC1CC=C(c2ccc(-c3cccs3)s2)CC1` (stereo not drawn), for which the absorption maximum is, setting by setting: (in C1CCOC1) 341 nm; (in CC#N) 341 nm; (in CCCCCC) 341 nm; (in CCO) 336 nm; (in OCCOCCO) 341 nm; (in c1ccncc1) 343 nm.

In the case of `Cc1cc2ccsc2c2[nH]c3ccccc3c12`, the absorption maximum (in ClCCl) is listed as 310 nm.

`CC[n+]1c(-c2ccccc2)c2cc(NC(=O)N[C@H]3C[C@@H]([NH3+])[C@H](O)[C@@H](O)[C@@H]3O)ccc2c2ccc(NC(=O)N[C@@H]3C[C@H]([NH3+])[C@@H](O)[C@@H](O)[C@H]3O)cc21` displayed an absorption maximum (in O) of 438 nm.

In the case of `CC(C)[Si](C#Cc1c2cc3ccccc3cc2c(C#C[Si](C(C)C)(C(C)C)C(C)C)c2nc3c(ccc4cc5ccccc5cc43)nc12)(C(C)C)C(C)C`, the absorption maximum (in CCCCCC) was 644 nm.
